In ChEMBL document CHEMBL5584240, “Evaluation of potency and metabolic stability of diphyllin-derived Vacuolar-ATPase inhibitors” (Eur J Med Chem, 2024):
pEC50: −log10 of the molar value.

Legend:
[1] = Selectivity index, ratio of CC50 for human primary macrophages to EC50 for recombinant Ebola virus Mayinga expressing GFP infected in human primary macrophages; assay type: toxicity; conditions: read-out: Ratio CC50/EC50
[2] = Selectivity index, ratio of CC50 for HEK293 cells to EC50 for recombinant Ebola virus Mayinga expressing GFP infected in human HeLa cells with ATP6V0a2 KO; assay type: toxicity, cell-based; conditions: read-out: Ratio CC50/EC50
[3] = biological target: Voltage-gated inwardly rectifying potassium channel KCNH2 (Homo sapiens, UniProt Q12809); assay: Inhibition of hERG at 10 uM relative to control; assay type: toxicity
Sequence of Voltage-gated inwardly rectifying potassium channel KCNH2 (Q12809 whole entry): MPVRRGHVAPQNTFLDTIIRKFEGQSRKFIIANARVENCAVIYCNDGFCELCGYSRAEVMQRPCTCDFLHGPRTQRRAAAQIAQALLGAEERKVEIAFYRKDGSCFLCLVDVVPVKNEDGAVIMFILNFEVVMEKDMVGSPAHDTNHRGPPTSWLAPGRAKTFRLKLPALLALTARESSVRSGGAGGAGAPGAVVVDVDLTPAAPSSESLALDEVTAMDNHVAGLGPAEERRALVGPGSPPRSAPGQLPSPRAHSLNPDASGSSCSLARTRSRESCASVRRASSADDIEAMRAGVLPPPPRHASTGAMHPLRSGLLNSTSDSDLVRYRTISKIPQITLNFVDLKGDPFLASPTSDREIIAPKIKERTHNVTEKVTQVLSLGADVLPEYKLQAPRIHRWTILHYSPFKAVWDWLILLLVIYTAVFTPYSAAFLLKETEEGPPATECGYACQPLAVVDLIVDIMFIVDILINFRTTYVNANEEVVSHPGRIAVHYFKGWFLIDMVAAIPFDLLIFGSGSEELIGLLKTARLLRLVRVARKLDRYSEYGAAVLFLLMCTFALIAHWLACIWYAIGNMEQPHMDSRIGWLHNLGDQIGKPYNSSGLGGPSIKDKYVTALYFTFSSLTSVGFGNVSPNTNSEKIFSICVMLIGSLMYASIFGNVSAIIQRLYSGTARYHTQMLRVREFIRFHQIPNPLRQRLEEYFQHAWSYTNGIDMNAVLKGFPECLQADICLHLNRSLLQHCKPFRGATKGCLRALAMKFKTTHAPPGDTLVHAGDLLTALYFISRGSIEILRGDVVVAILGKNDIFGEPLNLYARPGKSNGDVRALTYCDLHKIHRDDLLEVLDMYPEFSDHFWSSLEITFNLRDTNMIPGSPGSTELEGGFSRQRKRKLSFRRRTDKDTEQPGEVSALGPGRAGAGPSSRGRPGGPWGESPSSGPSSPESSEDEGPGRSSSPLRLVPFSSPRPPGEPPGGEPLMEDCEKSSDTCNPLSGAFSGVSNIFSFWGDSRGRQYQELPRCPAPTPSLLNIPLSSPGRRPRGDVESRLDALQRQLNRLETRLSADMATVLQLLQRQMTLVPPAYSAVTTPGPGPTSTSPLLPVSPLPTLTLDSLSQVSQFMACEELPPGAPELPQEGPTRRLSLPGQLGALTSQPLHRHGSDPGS

HEK293 = assay: Cytotoxicity against HEK293 cells incubated for 72 hrs by MTT assay; assay type: toxicity, cell-based; conditions: human, hek293, 72 h
Ebolavirus [4] = assay: Antiviral activity against recombinant Ebola virus Mayinga expressing GFP infected in human HeLa cells with ATP6V0a2 KO assessed as reduction in viral entry into cells pretreated for 1 hr followed by viral infection measured after 24 to 48 hrs by imaging analysis; assay type: functional, organism-based; conditions: Orthoebolavirus
Ebolavirus [5] = assay: Antiviral activity against recombinant Ebola virus Mayinga expressing GFP infected in human primary macrophages assessed as reduction in infectivity pretreated for 1 hr followed by viral infection measured after 24 to 48 hrs by imaging analysis; assay type: functional, organism-based; conditions: Orthoebolavirus, Primary macrophage
[6] = Apparent volume of distribution during terminal phase in CD-1 mouse at 50 mg/kg, po by LC-MS/MS analysis; assay type: ADME, organism-based; conditions: in vivo, read-out: Vz/F
[7] = AUC (0.25 to 24 hrs) in CD-1 mouse at 50 mg/kg, po by LC-MS/MS analysis; assay type: ADME, organism-based; conditions: in vivo
[8] = Cmax in CD-1 mouse at 50 mg/kg, po by LC-MS/MS analysis; assay type: ADME, organism-based; conditions: in vivo
[9] = Half life in CD-1 mouse at 50 mg/kg, po by LC-MS/MS analysis; assay type: ADME, organism-based; conditions: in vivo
[10] = Tmax in CD-1 mouse at 50 mg/kg, po by LC-MS/MS analysis; assay type: ADME, organism-based; conditions: in vivo
[11] = AUC (infinity) in CD-1 mouse at 50 mg/kg, po by LC-MS/MS analysis; assay type: ADME, organism-based; conditions: in vivo
[12] = Apparent oral clearance in CD-1 mouse at 50 mg/kg, po by LC-MS/MS analysis; assay type: ADME, organism-based; conditions: in vivo
[13] = MRT in CD-1 mouse at 50 mg/kg, po by LC-MS/MS analysis; assay type: ADME, organism-based; conditions: in vivo

Row | Structure (SMILES) | selectivity ratio [2] | inhibition (INH) [3] [%] | CC50 (HEK293) [nM] | pEC50 (Ebolavirus [4]) | other results
1 | COc1cc2c(OCCCN3CC4CCC3CO4)c3c(c(-c4ccc5c(c4)OCO5)c2cc1OC)C(=O)OC3 (stereo not given) | > 1200 | 54 | 80000 | 7.55 | selectivity ratio [1]: 319; pEC50 (Ebolavirus [5]): 7.72
2 | COc1cc2c(OC3COC3)c3c(c(-c4ccc5c(c4)OCO5)c2cc1OC)C(=O)OC3 | > 79 | 15 | 72000 | 6.50 | –
3 | COc1cc2c(OCCCN3CCNC(=O)C3)c3c(c(-c4ccc5c(c4)OCO5)c2cc1OC)C(=O)OC3 | – | 5 | > 80000 | 6.36 | –
4 | COc1cc2c(OCCCN3CCN(C)CC3)c3c(c(-c4ccc5c(c4)OCO5)c2cc1OC)C(=O)OC3 | > 630 | 75 | 12000 | 8.15 | –
5 | COc1cc2c(OCCCN3CC4CC3CO4)c3c(c(-c4ccc5c(c4)OCO5)c2cc1OC)C(=O)OC3 (stereo not given) | > 660 | 73 | 52000 | 7.32 | –
6 | COc1cc2c(OCCCN3CCOCC3)c3c(c(-c4ccc5c(c4)OCO5)c2cc1OC)C(=O)OC3 | > 230 | 11 | > 80000 | 7.02 | –
7 | COC(=O)N1CCN(CCCOc2c3c(c(-c4ccc5c(c4)OCO5)c4cc(OC)c(OC)cc24)C(=O)OC3)CC1 | > 110 | 30 | > 80000 | 7.66 | –
8 | COc1cc2c(OCCCN3[C@@H]4CC[C@H]3COC4)c3c(c(-c4ccc5c(c4)OCO5)c2cc1OC)C(=O)OC3 | > 190 | 76 | > 80000 | 6.84 | –
9 | COc1cc2c(OCCCN3CCN(C=O)CC3)c3c(c(-c4ccc5c(c4)OCO5)c2cc1OC)C(=O)OC3 | > 610 | 34 | > 80000 | 7.51 | –
10 | COCCN1CCN(CC(O)COc2c3c(c(-c4ccc5c(c4)OCO5)c4cc(OC)c(OC)cc24)C(=O)OC3)CC1 (stereo not given) | > 580 | 51 | – | 7.36 | –
11 | COc1cc2c(OCCCN3CCN(S(C)(=O)=O)CC3)c3c(c(-c4ccc5c(c4)OCO5)c2cc1OC)C(=O)OC3 | > 550 | 16 | > 80000 | 7.46 | –
12 | COc1cc2c(OCCN3CCN(C)CC3)c3c(c(-c4ccc5c(c4)OCO5)c2cc1OC)C(=O)OC3 | 300 | 79 | > 80000 | 7.44 | selectivity ratio [1]: 170; pEC50 (Ebolavirus [5]): 7.52
13 | COc1cc2c(OCCCN3CCN(C(C)=O)CC3)c3c(c(-c4ccc5c(c4)OCO5)c2cc1OC)C(=O)OC3 | > 590 | 11 | > 80000 | 7.38 | –
14 | COc1cc2c(OCC#N)c3c(c(-c4ccc5c(c4)OCO5)c2cc1OC)C(=O)OC3 | > 140 | 6 | > 80000 | 6.74 | –
15 | COc1cc2c(OCCCN3CC4CC3CN4C)c3c(c(-c4ccc5c(c4)OCO5)c2cc1OC)C(=O)OC3 (stereo not given) | > 210 | 72 | > 80000 | 6.94 | –
16 | COc1cc2c(OCCCN3CC4CCC(C3)N4C)c3c(c(-c4ccc5c(c4)OCO5)c2cc1OC)C(=O)OC3 | > 3400 | 100 | > 80000 | 8.00 | selectivity ratio [1]: 577; pEC50 (Ebolavirus [5]): 8.00
17 | COc1cc2c(OC3CCOCC3)c3c(c(-c4ccc5c(c4)OCO5)c2cc1OC)C(=O)OC3 | 43 | 36 | > 80000 | 6.91 | –
18 | COc1cc2c(OCCN3CCOCC3)c3c(c(-c4ccc5c(c4)OCO5)c2cc1OC)C(=O)OC3 | > 38 | – | > 80000 | 6.19 | –
19 | COc1cc2c(OCCCN3[C@@H]4CC[C@H]3CN(C)C4)c3c(c(-c4ccc5c(c4)OCO5)c2cc1OC)C(=O)OC3 | > 940 | 72 | 71000 | 7.74 | selectivity ratio [1]: 313; pEC50 (Ebolavirus [5]): 7.60
20 | COc1cc2c(OCC(O)CN3CCN(C)CC3)c3c(c(-c4ccc5c(c4)OCO5)c2cc1OC)C(=O)OC3 (stereo not given) | > 420 | 36 | > 80000 | 7.27 | selectivity ratio [1]: > 753; pEC50 (Ebolavirus [5]): 7.48
21 | COc1cc2c(OCCCC#N)c3c(c(-c4ccc5c(c4)OCO5)c2cc1OC)C(=O)OC3 | 130 | 24 | > 80000 | 7.43 | Vd/F [6]: 2.85 L; AUC(0-t) [7]: 6.86 µM·h; Cmax [8]: 3560 nM; t1/2 [9]: 6.4 h; Tmax [10]: 0.5 h; AUC [11]: 7.191 µM·h; CL/F [12]: 5.18 mL/min; MRT [13]: 5.9 h
22 | CO/C1=C\C(C)=C\[C@@H](C)[C@@H](O)[C@@H](C)C/C(C)=C/C=C/[C@H](OC)[C@@H]([C@@H](C)[C@@H](O)[C@H](C)[C@@]2(O)C[C@@H](O)[C@H](C)[C@@H](C(C)C)O2)OC1=O [BAFILOMYCIN A1] | 470 | – | 37000 | 8.52 | –
23 | COc1cc2c(O[C@@H]3O[C@H](C)[C@@H](O)[C@H](O)[C@H]3O)c3c(c(-c4ccc5c(c4)OCO5)c2cc1OC)C(=O)OC3 [PATENTIFLORIN A] | > 59 | < 5 | > 80000 | 6.37 | selectivity ratio [1]: 295; Cmax [8]: 101 nM; Tmax [10]: 0.25 h; pEC50 (Ebolavirus [5]): 7.07
24 | COc1cc2c(OCC(O)CN3CCOCC3)c3c(c(-c4ccc5c(c4)OCO5)c2cc1OC)C(=O)OC3 (stereo not given) | > 160 | 16 | > 80000 | 6.80 | –
25 | COc1cc2c(OC3CNC3)c3c(c(-c4ccc5c(c4)OCO5)c2cc1OC)C(=O)OC3 | > 150 | 89 | > 80000 | 6.67 | –
26 | COC(=O)N1CCN(CC(O)COc2c3c(c(-c4ccc5c(c4)OCO5)c4cc(OC)c(OC)cc24)C(=O)OC3)CC1 (stereo not given) | > 740 | 23 | > 80000 | 7.39 | –
27 | COc1cc2c(OCC(O)CN3CC4CCC(C3)N4C)c3c(c(-c4ccc5c(c4)OCO5)c2cc1OC)C(=O)OC3 (stereo not given) | 2000 | 99 | > 80000 | 8.15 | –
28 | COc1cc2c(OCCCN3CC4CCC3CN4C)c3c(c(-c4ccc5c(c4)OCO5)c2cc1OC)C(=O)OC3 (stereo not given) | > 1020 | 90 | 54000 | 7.59 | selectivity ratio [1]: 3240; pEC50 (Ebolavirus [5]): 8.70
29 | COc1cc2c(OC3CCNC3)c3c(c(-c4ccc5c(c4)OCO5)c2cc1OC)C(=O)OC3 (stereo not given) | 300 | 97 | > 80000 | 7.07 | –
30 | COc1cc2c(OCCCN3CC4CCC(C3)O4)c3c(c(-c4ccc5c(c4)OCO5)c2cc1OC)C(=O)OC3 | > 190 | 22 | > 80000 | 6.90 | –
